{"source": "ChEMBL document CHEMBL1149799", "about": "“Bioactive peroxides as potential therapeutic agents” (Eur J Med Chem, 2008)", "type_in_all_cases": "functional, cell-based", "key": {"OVCAR-5": {"test_system": "OVCAR-5", "test": "Cytotoxicity against human OVCAR5 cells"}, "OVCAR-8": {"test_system": "OVCAR-8", "test": "Cytotoxicity against human OVCAR8 cells"}, "SK-OV-3": {"test_system": "SK-OV-3", "test": "Cytotoxicity against human SK-OV-3 cells"}, "ACHN": {"test_system": "ACHN", "test": "Cytotoxicity against human ACHN cells"}, "PC-3": {"test_system": "PC-3", "test": "Cytotoxicity against human PC3 cells", "details": "Homo sapiens, PC-3"}, "A549": {"test_system": "A549", "test": "Cytotoxicity against human A549 cells", "details": "Homo sapiens, A549"}, "HCT-116": {"test_system": "HCT-116", "test": "Cytotoxicity against human HCT116 cells"}, "HT-29": {"test_system": "HT-29", "test": "Cytotoxicity against human HT29 cells", "details": "Homo sapiens, HT-29"}, "MDA-MB-231": {"test_system": "MDA-MB-231", "test": "Cytotoxicity against human MDA-MB-231 cells"}, "MCF7": {"test_system": "MCF7", "test": "Cytotoxicity against human MCF7 cells", "details": "Homo sapiens, MCF7"}, "SF-268": {"test_system": "SF-268", "test": "Cytotoxicity against human SF268 cells", "details": "Homo sapiens, SF-268; read-out: IC50"}, "NCI-H460": {"test_system": "NCI-H460", "test": "Cytotoxicity against human NCI-H460 cells", "details": "Homo sapiens, NCI-H460"}, "DU-145": {"test_system": "DU-145", "test": "Cytotoxicity against human DU145 cells", "details": "Homo sapiens, DU-145"}, "NCI-H23": {"test_system": "NCI-H23", "test": "Cytotoxicity against human NCI-H23 cells"}, "HCC 2998": {"test_system": "HCC 2998", "test": "Cytotoxicity against human HCC2998 cells"}, "HCT-15": {"test_system": "HCT-15", "test": "Cytotoxicity against human HCT15 cells"}, "KM12": {"test_system": "KM12", "test": "Cytotoxicity against human KM12 cells"}, "SF-295": {"test_system": "SF-295", "test": "Cytotoxicity against human SF295 cells"}, "SNB-75": {"test_system": "SNB-75", "test": "Cytotoxicity against human SNB75 cells"}, "U-251": {"test_system": "U-251", "test": "Cytotoxicity against human U251 cells"}, "LOX IMVI": {"test_system": "LOX IMVI", "test": "Cytotoxicity against human LOXI MVI cells"}, "OVCAR-3": {"test_system": "OVCAR-3", "test": "Cytotoxicity against human OVCAR-3 cells"}, "OVCAR-4": {"test_system": "OVCAR-4", "test": "Cytotoxicity against human OVCAR4 cells"}, "[1]": {"test": "Cytotoxicity against human HBC4 cells"}, "[2]": {"test": "Cytotoxicity against human BSY1 cells", "details": "BSY-1"}, "[3]": {"test": "Cytotoxicity against human HBC5 cells"}, "NCI-H226": {"test_system": "NCI-H226", "test": "Cytotoxicity against human NCI-H226 cells"}, "NCI-H522": {"test_system": "NCI-H522", "test": "Cytotoxicity against human NCI-H522 cells"}, "DMS-273": {"test_system": "DMS-273", "test": "Cytotoxicity against human DMS273 cells"}, "DMS-114": {"test_system": "DMS-114", "test": "Cytotoxicity against human DMS114 cells"}, "St-4": {"test_system": "St-4", "test": "Cytotoxicity against human ST4 cells"}, "[4]": {"test": "Cytotoxicity against human MKN1 cells", "details": "MKN-1"}, "MKN-7": {"test_system": "MKN-7", "test": "Cytotoxicity against human MKN7 cells"}, "MKN-28": {"test_system": "MKN-28", "test": "Cytotoxicity against human MKN28 cells"}, "MKN-45": {"test_system": "MKN-45", "test": "Cytotoxicity against human MKN45 cells"}, "MKN-74": {"test_system": "MKN-74", "test": "Cytotoxicity against human MKN74 cells"}, "[5]": {"test": "Cytotoxicity against human RXF63IL cells"}, "SF-539": {"test_system": "SF-539", "test": "Cytotoxicity against human SF539 cells"}, "SNB-78": {"test_system": "SNB-78", "test": "Cytotoxicity against human SNB78 cells"}}, "data": [{"smiles": "C=C(C)[C@@H](C)/C=C/[C@@H](C)[C@H]1CC[C@@H]2[C@]1(C)CC=C1[C@]23C=C[C@]2(C[C@@H](O)CC[C@]12C)OO3", "values": [{"measurement": "IC50", "setting": "OVCAR-5", "value": 0.54, "unit": "µg/mL"}, {"measurement": "IC50", "setting": "OVCAR-8", "value": 0.22, "unit": "µg/mL"}, {"measurement": "IC50", "setting": "SK-OV-3", "value": 0.81, "unit": "µg/mL"}, {"measurement": "IC50", "setting": "ACHN", "value": 0.51, "unit": "µg/mL"}, {"measurement": "IC50", "setting": "PC-3", "value": 0.57, "unit": "µg/mL"}, {"measurement": "IC50", "setting": "A549", "value": 0.96, "unit": "µg/mL"}, {"measurement": "IC50", "setting": "HCT-116", "value": 0.48, "unit": "µg/mL"}, {"measurement": "IC50", "setting": "HT-29", "value": 0.57, "unit": "µg/mL"}, {"measurement": "IC50", "setting": "MDA-MB-231", "value": 1.26, "unit": "µg/mL"}, {"measurement": "IC50", "setting": "MCF7", "value": 0.36, "unit": "µg/mL"}, {"measurement": "IC50", "setting": "SF-268", "value": 1.02, "unit": "µg/mL"}, {"measurement": "IC50", "setting": "NCI-H460", "value": 0.61, "unit": "µg/mL"}, {"measurement": "IC50", "setting": "DU-145", "value": 0.54, "unit": "µg/mL"}, {"measurement": "IC50", "setting": "NCI-H23", "value": 0.54, "unit": "µg/mL"}, {"measurement": "IC50", "setting": "HCC 2998", "value": 0.57, "unit": "µg/mL"}, {"measurement": "IC50", "setting": "HCT-15", "value": 0.75, "unit": "µg/mL"}, {"measurement": "IC50", "setting": "KM12", "value": 0.6, "unit": "µg/mL"}, {"measurement": "IC50", "setting": "SF-295", "value": 0.75, "unit": "µg/mL"}, {"measurement": "IC50", "setting": "SNB-75", "value": 2.16, "unit": "µg/mL"}, {"measurement": "IC50", "setting": "U-251", "value": 0.63, "unit": "µg/mL"}, {"measurement": "IC50", "setting": "LOX IMVI", "value": 0.6, "unit": "µg/mL"}, {"measurement": "IC50", "setting": "OVCAR-3", "value": 0.19, "unit": "µg/mL"}, {"measurement": "IC50", "setting": "OVCAR-4", "value": 0.6, "unit": "µg/mL"}, {"measurement": "IC50", "setting": "[1]", "value": 0.85, "unit": "µg/mL"}, {"measurement": "IC50", "setting": "[2]", "value": 0.6, "unit": "µg/mL"}, {"measurement": "IC50", "setting": "[3]", "value": 0.96, "unit": "µg/mL"}, {"measurement": "IC50", "setting": "NCI-H226", "value": 0.63, "unit": "µg/mL"}, {"measurement": "IC50", "setting": "NCI-H522", "value": 0.57, "unit": "µg/mL"}, {"measurement": "IC50", "setting": "DMS-273", "value": 0.54, "unit": "µg/mL"}, {"measurement": "IC50", "setting": "DMS-114", "value": 0.48, "unit": "µg/mL"}, {"measurement": "IC50", "setting": "St-4", "value": 0.69, "unit": "µg/mL"}, {"measurement": "IC50", "setting": "[4]", "value": 0.42, "unit": "µg/mL"}, {"measurement": "IC50", "setting": "MKN-7", "value": 0.48, "unit": "µg/mL"}, {"measurement": "IC50", "setting": "MKN-28", "value": 0.84, "unit": "µg/mL"}, {"measurement": "IC50", "setting": "MKN-45", "value": 0.54, "unit": "µg/mL"}, {"measurement": "IC50", "setting": "MKN-74", "value": 0.54, "unit": "µg/mL"}, {"measurement": "IC50", "setting": "[5]", "value": 0.72, "unit": "µg/mL"}, {"measurement": "IC50", "setting": "SF-539", "value": 0.84, "unit": "µg/mL"}, {"measurement": "IC50", "setting": "SNB-78", "value": 1.17, "unit": "µg/mL"}]}]}
